Measurements: ChEMBL document CHEMBL5346977, “Discovery of Novel d-(+)-Biotin-Conjugated Resorcinol Dibenzyl Ether-Based PD-L1 Inhibitors for Targeted Cancer Immunotherapy” (J Med Chem, 2023)
Calls of active or inactive are those of the source. The rule behind the calls is not given here.

How the values were obtained:
HepG2 = assay: Antitumor immunity activity against human HepG2 cells expressing human PD-L1 co-cultured with human Jurkat T cells expressing human PD-1 assessed as reduction in cell viability at 10 uM incubated for 48 hrs by CCK8 assay relative to control; type: functional
[1] = molecular target: T1, Programmed cell death protein 1/Programmed cell death 1 ligand 1 (Homo sapiens, UniProt Q9NZQ7); assay: Inhibition of interaction of PD-1 (unknown origin) expressed in Jurkat T cells carrying luciferase reporter under the control of NFAT promoter/PD-L1 (unknown origin) expressed in CHO cells co-expressing TCR ligand and T-cell surrogate pretreated with CHO cells for 0.5 hrs followed by Jurkat T cell addition and measured after 5 hrs by luminescence based analysis
[2] = AUC (0 to t) in Sprague-Dawley rat at 1 mg/kg, iv administered as single dose and measured after 48 hrs by HPLC-MS/MS analysis; type: ADME, organism-based; design: dose 1 mg/kg, time 48 hrs, route iv; details: in vivo
[3] = AUC (0 to infinity) in Sprague-Dawley rat at 1 mg/kg, iv administered as single dose and measured after 48 hrs by HPLC-MS/MS analysis; type: ADME, organism-based; design: dose 1 mg/kg, time 48 hrs, route iv; details: in vivo
[4] = MRT (0 to t) in Sprague-Dawley rat at 1 mg/kg, iv administered as single dose and measured after 48 hrs by HPLC-MS/MS analysis; type: ADME, organism-based; details: in vivo
[5] = MRT (0 to infinity) in Sprague-Dawley rat at 1 mg/kg, iv administered as single dose and measured after 48 hrs by HPLC-MS/MS analysis; type: ADME, organism-based; details: in vivo
[6] = Half-life in Sprague-Dawley rat at 1 mg/kg, iv administered as single dose and measured after 48 hrs by HPLC-MS/MS analysis; type: ADME, organism-based; details: in vivo
[7] = Tmax in Sprague-Dawley rat at 1 mg/kg, iv administered as single dose and measured after 48 hrs by HPLC-MS/MS analysis; type: ADME, organism-based; details: in vivo
[8] = Clearance in Sprague-Dawley rat at 1 mg/kg, iv administered as single dose and measured after 48 hrs by HPLC-MS/MS analysis; type: ADME, organism-based; details: in vivo
[9] = Apparent volume of distribution in Sprague-Dawley rat at 1 mg/kg, iv administered as single dose and measured after 48 hrs by HPLC-MS/MS analysis; type: ADME, organism-based; details: in vivo, read-out: Vz
[10] = Initial drug concentration in Sprague-Dawley rat at 1 mg/kg, iv administered as single dose and measured after 48 hrs by HPLC-MS/MS analysis; type: ADME, organism-based; details: in vivo
B16-F10 [11] = assay: Antitumor activity against mouse B16-F10 cells implanted in BALB/c mouse assessed as reduction in tumor growth inhibition at 50 mg/kg, ip administered once daily for 14 days relative to control; type: functional; details: B16-F10, 336 h, time 14 day, read-out: TGI
B16-F10 [12] = assay: Antitumor immunity against mouse B16-F10 cells implanted in allogenic BALB/c mouse assessed as increase in CD3+ T cells at 50 mg/kg, ip by flow cytometric analysis (reference value: 2.51%); type: functional
[13] = Toxicity in allogenic BALB/c mouse implanted with mouse B16-F10 cells assessed as severe crypt necrosis in colon at 50 mg/kg, ip by H&E staining based analysis; type: organism-based; details: in vivo
[14] = Toxicity in allogenic BALB/c mouse implanted with mouse B16-F10 cells assessed as inflammatory cell infiltration in colon at 50 mg/kg, ip by H&E staining based analysis; type: organism-based; details: in vivo
[15] = molecular target: T2, Programmed cell death protein 1/Programmed cell death 1 ligand 1 (Homo sapiens) (UniProt Q15116+Q9NZQ7); assay: Inhibition of GST-tagged PD-1 (unknown origin)/His-tagged PD-L1 (unknown origin) interaction at 10 nM by HTRF binding assay relative to control; type: protein-complex assay
[16] = molecular target: T2, Programmed cell death protein 1/Programmed cell death 1 ligand 1 (Homo sapiens); assay: Inhibition of GST-tagged PD-1 (unknown origin)/His-tagged PD-L1 (unknown origin) interaction at 100 nM by HTRF binding assay relative to control; type: protein-complex assay
[17] = molecular target: T1, Programmed cell death protein 1/Programmed cell death 1 ligand 1; assay: Inhibition of GST-tagged PD-1 (unknown origin)/His-tagged PD-L1 (unknown origin) interaction by HTRF binding assay relative to control; type: protein-complex assay
[18] = molecular target: T2, Programmed cell death protein 1/Programmed cell death 1 ligand 1 (Homo sapiens); assay: Inhibition of GST-tagged PD-1 (unknown origin)/His-tagged PD-L1 (unknown origin) interaction at 10 uM by HTRF binding assay; type: protein-complex assay
[19] = molecular target: Programmed cell death 1 ligand 1 (Homo sapiens, UniProt Q9NZQ7); assay: Binding affinity to human PD-L1 at 20 uM by SPR analysis
[20] = molecular target: Programmed cell death 1 ligand 1 (Mus musculus) (UniProt Q9EP73); assay: Binding affinity to mouse PD-L1 at 20 uM by SPR analysis
Sequence of Programmed cell death 1 ligand 1 (Mus musculus) (Q9EP73 whole entry): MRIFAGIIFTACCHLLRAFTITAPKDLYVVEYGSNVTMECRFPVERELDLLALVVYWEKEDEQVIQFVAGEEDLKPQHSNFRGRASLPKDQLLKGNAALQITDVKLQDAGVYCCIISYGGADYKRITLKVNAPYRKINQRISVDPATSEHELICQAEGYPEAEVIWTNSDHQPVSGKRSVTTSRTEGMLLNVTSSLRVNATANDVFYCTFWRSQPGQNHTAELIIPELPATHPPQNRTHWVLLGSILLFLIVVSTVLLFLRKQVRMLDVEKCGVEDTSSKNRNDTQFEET

T1 sequence (Q15116 whole entry): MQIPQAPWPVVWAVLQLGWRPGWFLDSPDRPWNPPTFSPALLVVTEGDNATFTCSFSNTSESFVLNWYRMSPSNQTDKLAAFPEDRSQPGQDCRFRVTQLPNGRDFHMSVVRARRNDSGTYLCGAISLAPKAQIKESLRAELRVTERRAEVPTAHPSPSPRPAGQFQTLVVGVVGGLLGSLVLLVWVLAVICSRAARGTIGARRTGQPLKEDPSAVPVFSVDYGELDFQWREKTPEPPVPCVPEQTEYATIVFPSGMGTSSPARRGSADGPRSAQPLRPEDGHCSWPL
T1 sequence (Q9NZQ7 whole entry): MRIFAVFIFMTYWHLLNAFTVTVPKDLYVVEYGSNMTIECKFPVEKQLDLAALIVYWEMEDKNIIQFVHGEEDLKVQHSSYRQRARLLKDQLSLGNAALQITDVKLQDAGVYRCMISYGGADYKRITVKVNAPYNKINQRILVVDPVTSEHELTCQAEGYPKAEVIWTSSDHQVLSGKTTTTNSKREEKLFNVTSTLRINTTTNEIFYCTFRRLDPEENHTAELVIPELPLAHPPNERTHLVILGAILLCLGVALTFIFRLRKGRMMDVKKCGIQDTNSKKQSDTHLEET
Sequence of Programmed cell death 1 ligand 1 (Q9NZQ7 whole entry): as above

Row | Compound | inhibition [15] | inhibition [16] | further results
1 | Cc1c(COc2cc(OCc3cccc(C#N)c3)c(CN3CCCCC3C(=O)NCCN)cc2Cl)cccc1-c1ccccc1 (stereo unspecified) | – | – | Activity (HepG2): 31%; EC50 [1]: 4650 nM; AUCt [2]: 1800 ng·h/mL; AUC [3]: 1830 ng·h/mL; MRT last at 48 h [4]: 1.8 h; MRT inf [5]: 2.3 h; half-life [6]: 6.4 h; Tmax [7]: 4.98 min; clearance [8]: 8.33 mL/min/kg; Vd [9]: 5.3 L/kg; C0 at 48 h [10]: 2630 ng/mL; inhibition in vivo at 50 mg/kg (B16-F10 [11]): 44.3%; Activity (B16-F10 [12]): 8.45%; Activity [13]: Toxic; Activity [14]: Toxic
2 | Cc1c(COc2cc(OCc3cccc(C#N)c3)c(CN3CCCCC3C(=O)N(C)CCNC(=O)CCCC[C@@H]3SC[C@@H]4NC(=O)N[C@@H]43)cc2Cl)cccc1-c1ccc2c(c1)OCCO2 (stereo partly specified) | 20.1% | 82.6% | –
3 | Cc1c(COc2cc(OCc3cccc(C#N)c3)c(CNC(C)(C)C(=O)N3CCN(C(=O)CCCC[C@H]4SC[C@H]5NC(=O)N[C@H]54)CC3)cc2Cl)cccc1-c1ccc2c(c1)OCCO2 | 9.1% | 59.3% | –
4 | Cc1c(COc2cc(OCc3cccc(C#N)c3)c(CN3CCCCC3C(=O)N3CCC(NC(=O)CCCC[C@H]4SC[C@H]5NC(=O)N[C@H]54)CC3)cc2Cl)cccc1-c1ccc2c(c1)OCCO2 (stereo partly specified) | 13.4% | 90.6% | –
5 | Cc1c(COc2cc(OCc3cccc(C#N)c3)c(CN3CCCCC3C(=O)N3CCN(C(=O)CCCC[C@@H]4SC[C@@H]5NC(=O)N[C@@H]54)CC3)cc2Cl)cccc1-c1ccccc1 (stereo partly specified) | 93.1% | 102% | IC50 [17]: 3.4 nM
6 | Cc1c(COc2cc(OCc3cccc(C#N)c3)c(CN3CCCCC3C(=O)N3CCC(NC(=O)CCCC[C@@H]4SC[C@@H]5NC(=O)N[C@@H]54)CC3)cc2Cl)cccc1-c1ccccc1 (stereo partly specified) | 100% | 97.2% | IC50 [17]: 4 nM
7 | Cc1c(COc2cc(OCc3cccc(C#N)c3)c(CNC(C)(C)C(=O)NC3CCN(C(=O)CCCC[C@H]4SC[C@H]5NC(=O)N[C@H]54)CC3)cc2Cl)cccc1-c1ccccc1 | 5.9% | 74.6% | –
8 | Cc1c(COc2cc(OCc3cccc(C#N)c3)c(CNC(C)(C)C(=O)N3CCN(C(=O)CCCC[C@@H]4SC[C@@H]5NC(=O)N[C@@H]54)CC3)cc2Cl)cccc1-c1ccccc1 | 11.2% | 68.1% | –
9 | O=C(O)CCCC[C@@H]1SC[C@@H]2NC(=O)N[C@@H]21 | – | – | inhibition [18]: inactive; Activity [19]: inactive; Activity [20]: inactive
10 | Cc1c(COc2cc(OCc3cccc(C#N)c3)c(CN3CCCCC3C(=O)NC3CCN(C(=O)CCCC[C@H]4SC[C@H]5NC(=O)N[C@H]54)CC3)cc2Cl)cccc1-c1ccc2c(c1)OCCO2 (stereo partly specified) | 11.2% | 84.7% | –
11 | Cc1c(COc2cc(OCc3cccc(C#N)c3)c(CN3CCCCC3C(=O)N(C)CCNC(=O)CCCC[C@@H]3SC[C@@H]4NC(=O)N[C@@H]43)cc2Cl)cccc1-c1ccccc1 (stereo partly specified) | 34.9% | 104% | IC50 [17]: 10.8 nM
12 | Cc1c(COc2cc(OCc3cccc(C#N)c3)c(CN3CCCCC3C(=O)NCCCNC(=O)CCCC[C@@H]3SC[C@@H]4NC(=O)N[C@@H]43)cc2Cl)cccc1-c1ccccc1 (stereo partly specified) | 85.2% | 104% | IC50 [17]: 5.6 nM
13 | Cc1c(COc2cc(OCc3cccc(C#N)c3)c(CN3CCCCC3C(=O)N3CCN(C(=O)CCCC[C@@H]4SC[C@@H]5NC(=O)N[C@@H]54)CC3)cc2Cl)cccc1-c1ccc2c(c1)OCCO2 (stereo partly specified) | 17.3% | 80.9% | –
14 | Cc1c(COc2cc(OCc3cccc(C#N)c3)c(CNC(C)(C)C(=O)NC3CCN(C(=O)CCCC[C@H]4SC[C@H]5NC(=O)N[C@H]54)CC3)cc2Cl)cccc1-c1ccc2c(c1)OCCO2 | 3.7% | 50.1% | –
15 | Cc1c(COc2cc(OCc3cccc(C#N)c3)c(CN3CCCCC3C(=O)NCCNC(=O)CCCC[C@H]3SC[C@H]4NC(=O)N[C@H]43)cc2Cl)cccc1-c1ccc2c(c1)OCCO2 (stereo partly specified) | 26.8% | 88.5% | –
16 | Cc1c(COc2cc(OCc3cccc(C#N)c3)c(CN3CCCCC3C(=O)NC3CCN(C(=O)CCCC[C@@H]4SC[C@@H]5NC(=O)N[C@@H]54)CC3)cc2Cl)cccc1-c1ccccc1 (stereo partly specified) | 29.1% | 99.2% | IC50 [17]: 11.6 nM
17 | Cc1c(COc2cc(OCc3cccc(C#N)c3)c(CNC(C)(C)C(=O)N3CCC(NC(=O)CCCC[C@H]4SC[C@H]5NC(=O)N[C@H]54)CC3)cc2Cl)cccc1-c1ccc2c(c1)OCCO2 | -7.5% | 42.6% | –
18 | Cc1c(COc2cc(OCc3cccc(C#N)c3)c(CNC(C)(C)C(=O)NCCNC(=O)CCCC[C@@H]3SC[C@@H]4NC(=O)N[C@@H]43)cc2Cl)cccc1-c1ccccc1 | 21.3% | 79.2% | –
19 | Cc1c(COc2cc(OCc3cccc(C#N)c3)c(CNC(C)(C)C(=O)NCCCNC(=O)CCCC[C@@H]3SC[C@@H]4NC(=O)N[C@@H]43)cc2Cl)cccc1-c1ccccc1 | 10.4% | 81.5% | –
20 | Cc1c(COc2cc(OCc3cccc(C#N)c3)c(CNC(C)(C)C(=O)N3CCC(NC(=O)CCCC[C@@H]4SC[C@@H]5NC(=O)N[C@@H]54)CC3)cc2Cl)cccc1-c1ccccc1 | 6.8% | 64.1% | –
21 | Cc1c(COc2cc(OCc3cccc(C#N)c3)c(CNC(C)(C)C(=O)NCCNC(=O)CCCC[C@H]3SC[C@H]4NC(=O)N[C@H]43)cc2Cl)cccc1-c1ccc2c(c1)OCCO2 | -4% | 66.9% | –
